Measured values: patent publication US11186591B2, “Difluoromethyl-aminopyridines and difluoromethyl-aminopyrimidines” (TORQUR AG, priority 2014, dated 2021)

Assays:
pPKB S473 in A2058 cells = assay: In-cell Western blot, pPKB S473; assay type: cell-based; settings: Homo sapiens, 1 hour treatment, signal normalized to α-tubulin
[1] = test system: pS6 S235/S236 in A2058 cells; assay: In-cell Western blot, pS6 S235/S236; assay type: cell-based; settings: Homo sapiens, 1 hour treatment, signal normalized to α-tubulin
P110α = P110α (Homo sapiens, UniProt P42336); assay: P110α IC50 (Table 12, comparative biological activities); assay type: biochemical
P110α, sequence (P42336 whole entry, species assumed): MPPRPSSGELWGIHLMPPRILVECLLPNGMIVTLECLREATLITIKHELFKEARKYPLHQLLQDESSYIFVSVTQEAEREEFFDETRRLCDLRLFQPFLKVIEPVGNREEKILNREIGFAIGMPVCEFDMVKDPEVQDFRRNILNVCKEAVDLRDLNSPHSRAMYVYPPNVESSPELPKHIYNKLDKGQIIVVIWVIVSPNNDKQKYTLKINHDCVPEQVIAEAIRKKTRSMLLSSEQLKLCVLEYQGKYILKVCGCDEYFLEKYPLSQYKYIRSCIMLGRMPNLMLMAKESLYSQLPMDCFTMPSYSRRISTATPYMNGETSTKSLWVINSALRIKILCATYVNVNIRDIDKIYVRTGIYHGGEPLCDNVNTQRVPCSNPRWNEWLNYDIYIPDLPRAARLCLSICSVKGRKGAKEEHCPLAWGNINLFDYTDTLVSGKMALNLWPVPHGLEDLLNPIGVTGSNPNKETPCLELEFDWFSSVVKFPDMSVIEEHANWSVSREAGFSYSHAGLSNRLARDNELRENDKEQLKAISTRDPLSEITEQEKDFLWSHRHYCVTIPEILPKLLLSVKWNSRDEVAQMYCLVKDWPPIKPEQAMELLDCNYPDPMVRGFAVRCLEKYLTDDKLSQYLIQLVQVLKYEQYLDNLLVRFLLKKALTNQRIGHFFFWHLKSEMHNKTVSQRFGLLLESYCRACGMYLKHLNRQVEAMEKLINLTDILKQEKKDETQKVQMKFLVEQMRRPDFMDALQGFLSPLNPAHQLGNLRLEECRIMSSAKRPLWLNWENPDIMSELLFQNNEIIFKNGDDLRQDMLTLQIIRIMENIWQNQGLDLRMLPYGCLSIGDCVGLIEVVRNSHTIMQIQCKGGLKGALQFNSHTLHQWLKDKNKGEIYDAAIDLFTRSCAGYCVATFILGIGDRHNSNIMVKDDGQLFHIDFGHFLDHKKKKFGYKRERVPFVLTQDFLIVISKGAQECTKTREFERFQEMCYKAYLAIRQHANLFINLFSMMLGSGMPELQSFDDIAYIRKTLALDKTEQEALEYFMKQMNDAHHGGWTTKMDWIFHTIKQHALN
P110α, sequence (P27986 whole entry partner, species assumed): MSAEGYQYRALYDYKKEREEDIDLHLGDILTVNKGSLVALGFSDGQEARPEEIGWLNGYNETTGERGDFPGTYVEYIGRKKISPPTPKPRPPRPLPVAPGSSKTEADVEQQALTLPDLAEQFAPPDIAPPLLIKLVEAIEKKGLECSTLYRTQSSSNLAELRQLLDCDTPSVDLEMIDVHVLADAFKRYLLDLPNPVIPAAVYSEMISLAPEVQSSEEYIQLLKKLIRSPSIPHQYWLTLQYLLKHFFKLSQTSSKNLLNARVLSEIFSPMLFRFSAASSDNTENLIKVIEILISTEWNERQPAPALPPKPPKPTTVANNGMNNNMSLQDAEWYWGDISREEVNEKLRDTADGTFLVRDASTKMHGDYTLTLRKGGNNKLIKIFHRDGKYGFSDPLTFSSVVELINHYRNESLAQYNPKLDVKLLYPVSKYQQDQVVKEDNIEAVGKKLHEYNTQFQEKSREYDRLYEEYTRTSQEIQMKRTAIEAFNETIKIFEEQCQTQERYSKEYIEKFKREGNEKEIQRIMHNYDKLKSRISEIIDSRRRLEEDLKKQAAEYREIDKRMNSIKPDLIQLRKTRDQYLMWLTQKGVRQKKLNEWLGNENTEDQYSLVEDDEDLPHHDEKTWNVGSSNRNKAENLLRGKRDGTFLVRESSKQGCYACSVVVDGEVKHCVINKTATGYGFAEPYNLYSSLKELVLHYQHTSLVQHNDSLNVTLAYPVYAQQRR

Row | IC50 (P110α) | Compound | IC50 (pPKB S473 in A2058 cells; A2058, 1 h) | IC50 ([1]; A2058, 1 h) | IC50 (pPKB S473 in A2058 cells) | IC50 [1]
1 |  | Nc1cc(C(F)(F)F)c(-c2nc(N3CCNCC3)nc(N3CCOCC3)n2)cn1 [reference compound] | 302 nM | 743 nM |  | 
2 |  | C[C@@H]1COCCN1c1nc(-c2cnc(N)cc2C(F)F)nc(-c2cnc(N)cc2C(F)F)n1 [Example 43, 5-[4-[6-amino-4-(difluoromethyl)-3-pyridyl]-6-[(3R)-3-methylmorpholin-4-yl]-1,3,5-triazin-2-yl]-4-(difluoromethyl)pyridin-2-amine] |  |  | 383 nM | 154 nM
3 |  | Nc1ncc(-c2nc(N3CCOCC3)nc(N3CCSCC3)n2)c(C(F)(F)F)n1 [reference compound] | 343 nM | 996 nM |  | 
4 |  | Nc1cc(C(F)(F)F)c(-c2nc(N3CCOCC3)nc(N3CCOCC3)n2)cn1 | 149 nM | 340 nM |  | 
5 |  | C[C@H]1COCCN1c1nc(-c2cnc(N)cc2C(F)(F)F)nc(N2CCOC[C@@H]2C)n1 | 255 nM | 433 nM |  | 
6 |  | Nc1ncc(-c2nc(N3CCOCC3)nc(N3CCOCC3=O)n2)c(C(F)F)n1 [Example 36, 4-[4-[2-amino-4-(difluoromethyl)pyrimidin-5-yl]-6-morpholino-1,3,5-triazin-2-yl]morpholin-3-one] | 99 nM | 153 nM |  | 
7 |  | Nc1ncc(-c2nc(N3CCNCC3)nc(N3CCOCC3)n2)c(C(F)(F)F)n1 [reference compound] | 116 nM | 416 nM |  | 
8 |  | C[C@H]1COCCN1c1nc(-c2cnc(N)nc2C(F)(F)F)nc(N2CCOC[C@@H]2C)n1 | 118 nM | 224 nM |  | 
9 |  | Nc1cc(C(F)F)c(-c2nc(N3CCOCC3)nc(N3CCOCC3=O)n2)cn1 [Example 35, 4-[4-[6-amino-4-(difluoromethyl)-3-pyridyl]-6-morpholino-1,3,5-triazin-2-yl]morpholin-3-one] | 207 nM | 229 nM |  | 
10 |  | C[C@H]1COCCN1c1nc(-c2cnc(N)nc2C(F)F)nc(N2CCOC[C@@H]2C)n1 |  | 97 nM |  | 
11 | 1860 nM | C[C@H]1OC(=O)N(c2nc(-c3cnc(N)nc3C(F)(F)F)nc(N3CCOCC3)n2)[C@H]1CO [reference compound] | 689 nM |  |  | 
12 |  | C[C@H]1COCCN1c1nc(-c2cnc(N)cc2C(F)F)nc(N2CCOC[C@@H]2C)n1 | 155 nM | 215 nM |  | 
13 |  | Nc1ncc(-c2nc(N3CCOCC3)cc(N3CCOCC3)n2)c(C(F)F)n1 |  | 147 nM |  | 
14 |  | C[C@H]1COCCN1c1cc(-c2cnc(N)nc2C(F)F)nc(N2CCOCC2)n1 | 77 nM | 146 nM |  | 
15 | 161 nM | C[C@H]1OC(=O)N(c2nc(-c3cnc(N)nc3C(F)F)nc(N3CCOCC3)n2)[C@H]1CO | 100 nM |  |  | 
16 |  | Nc1cc(C(F)(F)F)c(-c2nc(N3CCOCC3)nc(N3CCSCC3)n2)cn1 [reference compound] | 311 nM | 559 nM |  | 
